Laboratory results as given in US12226409B2, “Treatment of hepatocellular carcinoma” (Eisai R&D Management Co., Ltd., priority 2017, dated 2025).

Columns and labels:
[1] = test system: unresectable hepatocellular carcinoma (HCC); assay: REFLECT study, efficacy per independent review; type: in vivo, human
Experimental: The efficacy of LENVIMA was evaluated in a randomized, open-label, multicenter, international study (REFLECT; […]) conducted in patients with previously untreated unresectable hepatocellular carcinoma (HCC).

unresectable HCC = assay: Open-label phase 3 noninferiority study, efficacy (tumor assessment by mRECIST); type: in vivo, human
Text: (§1) The primary endpoint was overall survival.
Patients who were eligible for enrollment had unresectable HCC with diagnosis confirmed histologically or cytologically or with diagnosis confirmed clinically in accordance with the American Association for the Study of Liver Diseases criteria. Included patients also had ≥1 measureable target lesion, based on modified Response Evaluation Criteria in Solid Tumors (Lencioni 2010); Barcelona Clinic Liver Cancer stage B or C categorization (Bruix Hepatology 2011); Child-Pugh class A; and Eastern Cooperative Oncology Group performance status ≤1. All eligible patients had controlled blood pressure (≤150/90 mm Hg), and adequate organ function. Patients with ≥50% liver occupation, clear bile duct invasion, or portal vein invasion at the main portal vein were excluded. Patients also were excluded if that had received prior systemic therapy for HCC.
(§2) Tumors were evaluated in accordance with mRECIST (Lencioni R., Semin Liver Dis., 30(1):52-60, 2010); RECIST 1.1 was applied for nonhepatic lesions (Eisenhauer, Eur J Cancer, 45(2):228-47, 2009). The liver was examined with computed tomography or magnetic resonance imaging was performed using a triphasic scanning technique. Assessments were performed every 8 weeks until disease progression. Quality of life questionnaires were administered at baseline, on day 1 of each subsequent treatment cycle, and at the off-treatment visit.
The primary endpoint of overall survival was first tested for noninferiority then for superiority. The required number of events for the primary analysis was 700 deaths, based on the fill analysis set. The HR and its 95% confidence interval (CI) were estimated from a Cox proportional hazard model with treatment group as a factor and with the analysis stratified according to the same factors applied for randomization.
A fixed-sequence procedure was followed to control the overall type I error rate of analyses for both the primary and secondary efficacy endpoints at α=0.05 (2-sided). After noninferiority was declared, secondary efficacy endpoints were tested. Differences in progression-free survival and time to progression were evaluated using a stratified log-rank test with randomization stratification factors, with the associated HR and its 95% CI. A difference in the objective response rate was evaluated using the Cochran-Mantel-Haenszel chi-square test with randomized stratification factors as strata, with associated odds ratio and its 95% CI. To assess futility, 2 interim analyses (at 30% and 70% of the target number of events) were performed using Bayesian predictive probability in a noninferiority design by the independent data monitoring committee.

CYP2C19 = CYP2C19 (Homo sapiens, UniProt P33261); assay: In vitro CYP inhibition; type: in vitro ADME
[2] = test system: patients with unresectable HCC; assay: Quality of life, EORTC QLQ-C30 and QLQ-HCC18 questionnaires; type: in vivo, human; settings: role functioning, pain, diarrhea (QLQ-C30); nutrition, body image (QLQ-HCC18)
Experimental: as §1, §2

[3] = test system: lenvatinib-treated subjects; assay: Clinical studies with lenvatinib, posterior reversible encephalopathy syndrome; settings: human, in vivo
Text: Mild to severe hypertension also could be present. A magnetic resonance imaging (MRI) was necessary to confirm the diagnosis of PRES. In subjects with signs or symptoms of PRES, appropriate measures were to be taken to control blood pressure, and instructions in Table 6 were followed.

CYP3A4 = target: T1, CYP3A4 (Homo sapiens, UniProt P08684); assay: Drug interaction with midazolam (CYP3A4 substrate); settings: projected
T1 construct: from tissue; host or cells: human subjects (in vivo)

CYP3A = assay: In vitro CYP inhibition; type: in vitro ADME
CYP2C9 = CYP2C9 (Homo sapiens, UniProt P11712); assay: In vitro CYP inhibition; type: in vitro ADME
[4] = Phase 1 study of lenvatinib in HCC, plasma concentration; type: in vivo, human; settings: HCC patients 12 mg per day vs solid tumor patients 25 mg per day

T1 sequence (P08684 whole entry): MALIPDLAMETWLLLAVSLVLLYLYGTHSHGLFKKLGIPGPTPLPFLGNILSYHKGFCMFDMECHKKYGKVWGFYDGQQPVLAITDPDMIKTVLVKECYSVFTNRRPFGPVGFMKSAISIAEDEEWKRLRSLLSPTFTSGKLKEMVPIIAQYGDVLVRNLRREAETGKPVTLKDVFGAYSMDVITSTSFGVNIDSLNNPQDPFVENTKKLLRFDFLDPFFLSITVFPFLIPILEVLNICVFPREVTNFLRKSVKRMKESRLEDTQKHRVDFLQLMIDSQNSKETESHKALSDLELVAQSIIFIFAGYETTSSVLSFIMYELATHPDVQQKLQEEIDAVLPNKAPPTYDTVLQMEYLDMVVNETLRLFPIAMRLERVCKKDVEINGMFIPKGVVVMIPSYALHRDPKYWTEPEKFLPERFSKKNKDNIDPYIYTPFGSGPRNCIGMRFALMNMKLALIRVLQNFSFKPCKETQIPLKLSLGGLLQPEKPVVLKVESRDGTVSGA
CYP2C9, sequence (P11712 whole entry): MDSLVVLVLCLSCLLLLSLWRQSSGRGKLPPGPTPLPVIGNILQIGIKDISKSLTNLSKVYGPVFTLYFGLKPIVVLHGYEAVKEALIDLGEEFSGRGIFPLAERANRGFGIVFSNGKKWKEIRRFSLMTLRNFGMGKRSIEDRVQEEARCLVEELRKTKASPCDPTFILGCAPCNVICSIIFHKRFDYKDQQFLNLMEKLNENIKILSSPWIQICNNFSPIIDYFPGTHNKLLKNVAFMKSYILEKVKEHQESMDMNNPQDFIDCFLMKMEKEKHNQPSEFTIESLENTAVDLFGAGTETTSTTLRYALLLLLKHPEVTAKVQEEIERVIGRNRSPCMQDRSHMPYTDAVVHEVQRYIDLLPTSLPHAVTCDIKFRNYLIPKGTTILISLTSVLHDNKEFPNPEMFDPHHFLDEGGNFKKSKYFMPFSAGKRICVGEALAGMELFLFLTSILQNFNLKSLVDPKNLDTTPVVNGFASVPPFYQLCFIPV
CYP2C19, sequence (P33261 whole entry): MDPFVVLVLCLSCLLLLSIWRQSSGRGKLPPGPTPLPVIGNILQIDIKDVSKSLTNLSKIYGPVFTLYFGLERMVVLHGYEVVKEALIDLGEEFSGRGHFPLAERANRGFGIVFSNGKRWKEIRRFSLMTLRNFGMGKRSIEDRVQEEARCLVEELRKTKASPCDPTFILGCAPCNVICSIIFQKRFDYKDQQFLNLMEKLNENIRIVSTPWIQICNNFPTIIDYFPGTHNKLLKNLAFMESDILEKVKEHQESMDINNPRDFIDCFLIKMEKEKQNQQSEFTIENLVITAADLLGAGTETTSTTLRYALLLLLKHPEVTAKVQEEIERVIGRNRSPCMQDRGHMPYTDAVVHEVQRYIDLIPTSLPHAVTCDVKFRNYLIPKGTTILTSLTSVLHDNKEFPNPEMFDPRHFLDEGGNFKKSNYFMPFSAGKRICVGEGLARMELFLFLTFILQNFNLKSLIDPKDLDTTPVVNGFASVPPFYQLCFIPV

**Q.** What does the source list for `COc1cc2nccc(Oc3ccc(NC(=O)NC4CC4)c(Cl)c3)c2cc1C(N)=O` [Lenvatinib, 4-(3-chloro-4(cyclopropylaminocarbonyl)aminophenoxy)-7-methoxy-6-quinolinecarboxamide]?
**A.** Median OS ([1]; in vivo): 13.6 months; Median PFS ([1]; mRECIST, independent review): 7.3 months; Objective response rate ([1]; mRECIST, independent review): 41%; Primary reason for discontinuation of treatment: Disease Progression (unresectable HCC; Full Analysis Set): 311 (65.1) n (%); Durable stable disease lasting ≥23 wk (unresectable HCC; in vivo): 167 no.; Median overall survival (unresectable HCC; in vivo): 13.6 mo; Median progression-free survival (unresectable HCC; mRECIST): 7.4 mo; Median time to progression (unresectable HCC; mRECIST): 8.9 mo; inhibition of CYP2C19 (CYP2C19): inhibits; time to clinically meaningful deterioration of quality of life [2]: clinically meaningful delay in deterioration; events of posterior reversible encephalopathy syndrome (PRES) [3]: less than 1%; drug-drug interaction risk with midazolam (CYP3A4): no projected significant drug-drug interaction risk; inhibition of CYP3A (CYP3A): inhibits; inhibition of CYP2C9 (CYP2C9): inhibits; lenvatinib plasma concentration at 24 hours [4]: similar
